system: M. tuberculosis; experiment: Extracellular activity against M. tuberculosis in cholesterol media (Alamar Blue reduction assay); type: cell-based, Mycobacterium tuberculosis; settings: Mycobacterium tuberculosis, 240 h, 7H12-Cholesterol media, 10 days; read-out: Cholesterol broth: alamar blue--EC50

Going from `Cc1nonc1CC(=O)N1CCC(c2cc(-c3ccc(F)cc3)no2)CC1` [Compound 135, 1-(4-(3-(4-fluorophenyl)isoxazol-5-yl)piperidin-1-yl)-2-(4-methyl-1,2,5-oxadiazol-3-yl)ethan-1-one] to `Cc1nonc1CC(=O)N1CCC(c2nc(Cc3ccc(F)cc3)no2)CC1` [Compound 142, 1-(4-(3-(4-fluorobenzyl)-1,2,4-oxadiazol-5-yl)piperidin-1-yl)-2-(4-methyl-1,2,5-oxadiazol-3-yl)ethan-1-one], the EC50 rises from 1.58 µM to 6.64 µM (4.2-fold). The first is the more potent here.

Compared with `Cc1nonc1CC(=O)N1CCC(C)(c2nc(-c3ccc(F)cc3)no2)CC1` [Compound 138, 1-(4-(3-(4-fluorophenyl)-1,2,4-oxadiazol-5-yl)-4-methylpiperidin-1-yl)-2-(4-methyl-1,2,5-oxadiazol-3-yl)ethan-1-one], `Cc1nonc1CC(=O)N1CCC(O)(c2nc(-c3ccc(F)cc3)no2)CC1` [Compound 140, 1-(4-(3-(4-fluorophenyl)-1,2,4-oxadiazol-5-yl)-4-hydroxypiperidin-1-yl)-2-(4-methyl-1,2,5-oxadiazol-3-yl)ethan-1-one] is 2.1-fold lower in EC50: 1.47 µM for the first, 0.685 µM for the second.

Compared with `Cc1nonc1CC(=O)N1CCC(c2nc(-c3ccc(F)cc3)no2)(C(F)(F)F)CC1` [Compound 139, 1-(4-(3-(4-fluorophenyl)-1,2,4-oxadiazol-5-yl)-4-(trifluoromethyl)piperidin-1-yl)-2-(4-methyl-1,2,5-oxadiazol-3-yl)ethan-1-one], `Cc1nonc1CC(=O)N1CCC(c2nc(-c3cccc(F)c3)no2)CC1` [Compound 144, 1-(4-(3-(3-fluorophenyl)-1,2,4-oxadiazol-5-yl)piperidin-1-yl)-2-(4-methyl-1,2,5-oxadiazol-3-yl)ethan-1-one] is lower in EC50: > 10 µM for the first, 0.59 µM for the second. The second is the more potent here.

`Cc1nonc1CC(=O)N1CCC(c2nc(-c3ccc(F)cn3)no2)CC1` [Compound 141, 1-(4-(3-(5-fluoropyridin-2-yl)-1,2,4-oxadiazol-5-yl)piperidin-1-yl)-2-(4-methyl-1,2,5-oxadiazol-3-yl)ethan-1-one] and `Cc1nonc1CC(=O)N1CCC(c2nc(-c3ncc(F)cn3)no2)CC1` [Compound 148, 1-(4-(3-(5-fluoropyrimidin-2-yl)-1,2,4-oxadiazol-5-yl)piperidin-1-yl)-2-(4-methyl-1,2,5-oxadiazol-3-yl)ethan-1-one] cannot be ordered by EC50: > 10 µM for the first, > 10 µM for the second.

`Cc1nonc1CC(=O)N1CCC(c2nc(-c3cccc(F)c3F)no2)CC1` [Compound 143, 1-(4-(3-(2,3-difluorophenyl)-1,2,4-oxadiazol-5-yl)piperidin-1-yl)-2-(4-methyl-1,2,5-oxadiazol-3-yl)ethan-1-one] and `Cc1nonc1CC(=O)N1CCC(c2nc(-c3ccccc3F)no2)CC1` [Compound 146, 1-(4-(3-(2-fluorophenyl)-1,2,4-oxadiazol-5-yl)piperidin-1-yl)-2-(4-methyl-1,2,5-oxadiazol-3-yl)ethan-1-one] are within 1.5-fold of each other in EC50: 1.2 µM for the first, 1.36 µM for the second.

Going from `Cc1nonc1CC(=O)N1CCC(n2nnc(-c3cccc(F)c3)n2)CC1` [Compound 145, 1-(4-(5-(3-fluorophenyl)-2H-tetrazol-2-yl)piperidin-1-yl)-2-(4-methyl-1,2,5-oxadiazol-3-yl)ethan-1-one] to `Cc1nonc1CC(=O)N1CCC(n2nnc(-c3ccccc3F)n2)CC1` [Compound 147, 1-(4-(5-(2-fluorophenyl)-2H-tetrazol-2-yl)piperidin-1-yl)-2-(4-methyl-1,2,5-oxadiazol-3-yl)ethan-1-one], the EC50 rises from 0.963 µM to 1.45 µM (1.5-fold). The first is the more potent here.

`Cc1nonc1CC(=O)N1CCC(n2nnc(-c3ccc(C(N)=O)cc3)n2)CC1` [Compound 149, 4-(2-(1-(2-(4-methyl-1,2,5-oxadiazol-3-yl)acetyl)piperidin-4-yl)-2H-tetrazol-5-yl)benzamide] and `Cn1cnnc1CC(=O)N1CCC(n2nnc(-c3ccc(F)cc3)n2)CC1` [Compound 156, 1-(4-(5-(4-fluorophenyl)-2H-tetrazol-2-yl)piperidin-1-yl)-2-(4-methyl-4H-1,2,4-triazol-3-yl)ethan-1-one] cannot be ordered by EC50: > 10 µM for the first, > 10 µM for the second.

Compared with `Cc1nonc1CC(=O)N1CCC(n2cc(C(=O)NCCO)nn2)CC1` [Compound 150, N-(2-hydroxyethyl)-1-(1-(2-(4-methyl-1,2,5-oxadiazol-3-yl)acetyl)piperidin-4-yl)-1H-1,2,3-triazole-4-carboxamide], `Cn1ncnc1CC(=O)N1CCC(n2nnc(-c3ccc(Cl)cc3)n2)CC1` [Compound 168, 1-(4-(5-(4-chlorophenyl)-2H-tetrazol-2-yl)piperidin-1-yl)-2-(1-methyl-1H-1,2,4-triazol-5-yl)ethan-1-one] is lower in EC50: > 10 µM for the first, 0.472 µM for the second. The second is the more potent here.

First: Cc1nonc1CS(=O)(=O)N1CCC(c2nc(-c3ccc(F)cc3)no2)CC1 [Compound 151, 3-(4-fluorophenyl)-5-(1-(((4-methyl-1,2,5-oxadiazol-3-yl)methyl)sulfonyl)piperidin-4-yl)-1,2,4-oxadiazole]
Second: Cc1nonc1NC(=O)N1CCC(c2nc(-c3ccc(F)cc3)no2)CC1 [Compound 152, 4-(3-(4-fluorophenyl)-1,2,4-oxadiazol-5-yl)-N-(4-methyl-1,2,5-oxadiazol-3-yl)piperidine-1-carboxamide]
The EC50 of the first is higher: > 10 µM for the first, 0.653 µM for the second. The second is the more potent here.

First: Cn1cnc(CC(=O)N2CCC(c3nc(-c4ccc(Cl)c(Cl)c4)no3)CC2)n1 [Compound 153, 1-(4-(3-(3,4-dichlorophenyl)-1,2,4-oxadiazol-5-yl)piperidin-1-yl)-2-(1-methyl-1H-1,2,4-triazol-3-yl)ethan-1-one]
Second: Cn1ncnc1CC(=O)N1CCC(c2nc(-c3ccc(Cl)c(Cl)c3)no2)CC1 [Compound 164, 1-(4-(3-(3,4-dichlorophenyl)-1,2,4-oxadiazol-5-yl)piperidin-1-yl)-2-(1-methyl-1H-1,2,4-triazol-5-yl)ethan-1-one]
The EC50 of the first is higher: > 10 µM for the first, 0.0647 µM for the second. The second is the more potent here.

`Cn1cnc(CC(=O)N2CCC(c3nc(-c4ccc(F)cc4)no3)CC2)n1` [Compound 154, 1-(4-(3-(4-fluorophenyl)-1,2,4-oxadiazol-5-yl)piperidin-1-yl)-2-(1-methyl-1H-1,2,4-triazol-3-yl)ethan-1-one] and `Cn1cnnc1CC(=O)N1CCC(c2nc(-c3ccc(F)cc3)no2)CC1` [Compound 155, 1-(4-(3-(4-fluorophenyl)-1,2,4-oxadiazol-5-yl)piperidin-1-yl)-2-(4-methyl-4H-1,2,4-triazol-3-yl)ethan-1-one] cannot be ordered by EC50: > 10 µM for the first, > 10 µM for the second.

Compared with `Cn1ncnc1CC(=O)N1CCC(c2nc(C3CC4CCC3C4)no2)CC1` (centres unmarked) [Compound 157, 1-(4-(3-(bicyclo[2.2.1]heptan-2-yl)-1,2,4-oxadiazol-5-yl)piperidin-1-yl)-2-(1-methyl-1H-1,2,4-triazol-5-yl)ethan-1-one], `Cn1ncnc1CC(=O)N1CCC(c2nc(C3CCC(C)(F)CC3)no2)CC1` (centres unmarked) [Compound 160, 1-(4-(3-(4-fluoro-4-methylcyclohexyl)-1,2,4-oxadiazol-5-yl)piperidin-1-yl)-2-(1-methyl-1H-1,2,4-triazol-5-yl)ethan-1-one] is higher in EC50: 1.86 µM for the first, > 10 µM for the second.

`Cn1ncnc1CC(=O)N1CCC(c2nc([C@@H]3CC[C@@](C)(F)C3)no2)CC1` [Compound 158, 1-(4-(3-((1R,3R)-3-fluoro-3-methylcyclopentyl)-1,2,4-oxadiazol-5-yl)piperidin-1-yl)-2-(1-methyl-1H-1,2,4-triazol-5-yl)ethan-1-one] and `Cn1ncnc1CC(=O)N1CCC(c2nc([C@@H]3CC[C@](C)(F)C3)no2)CC1` [Compound 159, 1-(4-(3-((1R,3S)-3-fluoro-3-methylcyclopentyl)-1,2,4-oxadiazol-5-yl)piperidin-1-yl)-2-(1-methyl-1H-1,2,4-triazol-5-yl)ethan-1-one] cannot be ordered by EC50: > 10 µM for the first, > 10 µM for the second.

`Cn1ncnc1CC(=O)N1CCC(c2noc(C34CC(C)(C3)C4)n2)CC1` [Compound 161, 2-(1-methyl-1H-1,2,4-triazol-5-yl)-1-(4-(5-(3-methylbicyclo[1.1.1]pentan-1-yl)-1,2,4-oxadiazol-3-yl)piperidin-1-yl)ethan-1-one] and `Cn1ncnc1CC(=O)N1CCC(c2nc(C34CC(C)(C3)C4)no2)CC1` [Compound 162, 2-(1-methyl-1H-1,2,4-triazol-5-yl)-1-(4-(3-(3-methylbicyclo[1.1.1]pentan-1-yl)-1,2,4-oxadiazol-5-yl)piperidin-1-yl)ethan-1-one] cannot be ordered by EC50: > 10 µM for the first, > 10 µM for the second.

`Cn1ncnc1CC(=O)N1CCC(c2nc(-c3ccc(Cl)cc3Cl)no2)CC1` [Compound 163, 1-(4-(3-(2,4-dichlorophenyl)-1,2,4-oxadiazol-5-yl)piperidin-1-yl)-2-(1-methyl-1H-1,2,4-triazol-5-yl)ethan-1-one] and `Cn1ncnc1CC(=O)N1CCC(c2nc(-c3ccc(Cl)cc3)no2)CC1` [Compound 167, 1-(4-(3-(4-chlorophenyl)-1,2,4-oxadiazol-5-yl)piperidin-1-yl)-2-(1-methyl-1H-1,2,4-triazol-5-yl)ethan-1-one] are within 1.5-fold of each other in EC50: 0.2 µM for the first, 0.221 µM for the second.

First: Cn1ncnc1CC(=O)N1CCC(n2nnc(-c3ccc(Cl)c(Cl)c3)n2)CC1 [Compound 165, 1-(4-(5-(3,4-dichlorophenyl)-2H-tetrazol-2-yl)piperidin-1-yl)-2-(1-methyl-1H-1,2,4-triazol-5-yl)ethan-1-one]
Second: Cn1ncnc1CC(=O)N1CCC(n2nnc(-c3ccc(C(F)(F)F)cc3)n2)CC1 [Compound 171, 2-(1-methyl-1H-1,2,4-triazol-5-yl)-1-(4-(5-(4-(trifluoromethyl)phenyl)-2H-tetrazol-2-yl)piperidin-1-yl)ethan-1-one]
The EC50 of the first is 9.6-fold lower: 0.1 µM for the first, 0.963 µM for the second. The first is the more potent here.

Compared with `Cn1ncnc1CC(=O)N1CCC(c2noc(-c3ccc(Cl)c(Cl)c3)n2)CC1` [Compound 166, 1-(4-(5-(3,4-dichlorophenyl)-1,2,4-oxadiazol-3-yl)piperidin-1-yl)-2-(1-methyl-1H-1,2,4-triazol-5-yl)ethan-1-one], `Cn1ncnc1CC(=O)N1CCC(c2nc(-c3ccc(Cl)c(OC(F)(F)F)c3)no2)CC1` [Compound 169, 1-(4-(3-(4-chloro-3-(trifluoromethoxy)phenyl)-1,2,4-oxadiazol-5-yl)piperidin-1-yl)-2-(1-methyl-1H-1,2,4-triazol-5-yl)ethan-1-one] is 2.2-fold lower in EC50: 0.71 µM for the first, 0.33 µM for the second.

For `Cn1ncnc1CC(=O)N1CCC(c2nc(-c3ccc(OC(F)(F)F)cc3)no2)CC1` [Compound 170, 2-(1-methyl-1H-1,2,4-triazol-5-yl)-1-(4-(3-(4-(trifluoromethoxy)phenyl)-1,2,4-oxadiazol-5-yl)piperidin-1-yl)ethan-1-one], the EC50 was 0.13 µM.
